Reference: article PMC10450187, “Ncs2* mediates in vivo virulence of pathogenic yeast through sulphur modification of cytoplasmic transfer RNA” (Nucleic Acids Research, 2023)

Tests used:
CtNcs2 = target: T1, CtNcs2 (Thermochaetoides thermophila, UniProt G0SFJ9); test: thermal shift assay (SYPRO Orange); type: binding; settings: 2 mM MgCl2, 20 mM Tris pH 8, 150 mM NaCl, 1 mM DTT
T1 construct: gene NCS2; codon-optimized, E. coli BL21(DE3) pRARE, pETM30 N-terminal 6xHis-GST tag (TEV-cleavable, optionally cleaved), GSTrap, heparin, size exclusion
T1 sequence (G0SFJ9 1-406): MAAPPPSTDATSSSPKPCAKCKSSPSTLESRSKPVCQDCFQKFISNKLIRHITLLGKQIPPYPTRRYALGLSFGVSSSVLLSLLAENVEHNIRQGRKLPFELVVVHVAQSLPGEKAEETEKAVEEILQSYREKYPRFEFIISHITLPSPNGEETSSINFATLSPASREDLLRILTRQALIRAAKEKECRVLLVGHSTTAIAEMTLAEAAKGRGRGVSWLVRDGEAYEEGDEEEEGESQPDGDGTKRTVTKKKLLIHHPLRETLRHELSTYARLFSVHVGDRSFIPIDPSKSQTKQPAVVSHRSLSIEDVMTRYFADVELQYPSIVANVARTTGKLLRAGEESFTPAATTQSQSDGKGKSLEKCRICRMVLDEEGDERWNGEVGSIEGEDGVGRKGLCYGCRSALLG

[1] = target: Ncs6 (Needs-Cla4-to-Survive 6), S. cerevisiae (S. cerevisiae, UniProt P53088 1-359); test: two-hybrid; settings: partners not purified
Ncs6 (Needs-Cla4-to-Survive 6), S. cerevisiae, sequence (P53088 whole entry): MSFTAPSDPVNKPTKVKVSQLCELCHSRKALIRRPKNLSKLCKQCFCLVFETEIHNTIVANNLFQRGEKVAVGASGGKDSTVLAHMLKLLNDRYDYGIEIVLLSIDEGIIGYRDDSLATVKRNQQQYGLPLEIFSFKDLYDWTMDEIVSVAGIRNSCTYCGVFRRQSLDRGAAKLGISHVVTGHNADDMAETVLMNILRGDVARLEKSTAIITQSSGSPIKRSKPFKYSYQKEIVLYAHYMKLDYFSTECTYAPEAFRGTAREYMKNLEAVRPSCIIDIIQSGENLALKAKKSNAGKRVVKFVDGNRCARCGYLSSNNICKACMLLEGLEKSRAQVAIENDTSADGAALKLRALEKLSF

## Nc1ncnc2c1ncn2[C@@H]1O[C@H](COP(=O)(O)OP(=O)(O)OP(=O)(O)O)[C@@H](O)[C@H]1O [ATP]
CtNcs2; 1 mM ATP
  melting temperature: stability of Ncs2 increases significantly, when it is bound to ATP, ADP or the non-hydrolysable AMP-PNP

## Nc1ncnc2c1ncn2[C@@H]1O[C@H](COP(=O)(O)OP(=O)(O)O)[C@@H](O)[C@H]1O [ADP]
CtNcs2; 1 mM ADP
  melting temperature: stability of Ncs2 increases significantly, when it is bound to ATP, ADP or the non-hydrolysable AMP-PNP

## Nc1ncnc2c1ncn2[C@@H]1O[C@H](COP(=O)(O)OP(=O)(O)NP(=O)(O)O)[C@@H](O)[C@H]1O [AMP-PNP]
CtNcs2; 1 mM AMP-PNP
  melting temperature: stability of Ncs2 increases significantly, when it is bound to ATP, ADP or the non-hydrolysable AMP-PNP

B1: Ncs2* (Ncs2 H71L), S. cerevisiae (natural protein)
chain: MECQRCPASARNPATVESRKEKFCDECFIKFVSTKQRKQMMKDEYFRNLFKVIYPFEKEGSVSKILLPLSLSDSGSLVMLDIVHDLLLEQTKQHNNRTGFTVDVLTVFTEENVSVIKERMESLINEKMSQLNKISNIFNVHFIDVNEFFNNASEVSTFIIDNENFEIFSKSKSVDDSNILTLKEILGKYCLNNSSRSDLISIIKTQLIKHFAYENGYNAIMWGHSMTKLSEVIISLVVKGKGSQIATFLDSESFDTLNNKPCKYKNLYPMKDLLSVEIESFLQIRNLAQFLINVEETNVKPNCLIARKSLPSLGQQKLVKNMTINEITNKYFQDIQNDYSNIISTVLRTADKLTQPKSSMAKPSQCQICQSKIYTNPSNWLNRITVTSPYPVETTEEKYLFKQWQDSKLGQSHTHYVELLNEIKQGASNSLDVEDGDVKLCYGCLILLNTSIKDKNLVWPKVDTMDITANATNKNKELSQILDQFEINSDGEE
[1]
  Miller units (beta-galactosidase, two-hybrid): 252 MU

B2: Ncs2^H71A, S. cerevisiae (natural protein)
chain: MECQRCPASARNPATVESRKEKFCDECFIKFVSTKQRKQMMKDEYFRNLFKVIYPFEKEGSVSKILLPLSASDSGSLVMLDIVHDLLLEQTKQHNNRTGFTVDVLTVFTEENVSVIKERMESLINEKMSQLNKISNIFNVHFIDVNEFFNNASEVSTFIIDNENFEIFSKSKSVDDSNILTLKEILGKYCLNNSSRSDLISIIKTQLIKHFAYENGYNAIMWGHSMTKLSEVIISLVVKGKGSQIATFLDSESFDTLNNKPCKYKNLYPMKDLLSVEIESFLQIRNLAQFLINVEETNVKPNCLIARKSLPSLGQQKLVKNMTINEITNKYFQDIQNDYSNIISTVLRTADKLTQPKSSMAKPSQCQICQSKIYTNPSNWLNRITVTSPYPVETTEEKYLFKQWQDSKLGQSHTHYVELLNEIKQGASNSLDVEDGDVKLCYGCLILLNTSIKDKNLVWPKVDTMDITANATNKNKELSQILDQFEINSDGEE
[1]
  Miller units (beta-galactosidase, two-hybrid): 130 MU

B3: Ncs2^H71I, S. cerevisiae (natural protein)
chain: MECQRCPASARNPATVESRKEKFCDECFIKFVSTKQRKQMMKDEYFRNLFKVIYPFEKEGSVSKILLPLSISDSGSLVMLDIVHDLLLEQTKQHNNRTGFTVDVLTVFTEENVSVIKERMESLINEKMSQLNKISNIFNVHFIDVNEFFNNASEVSTFIIDNENFEIFSKSKSVDDSNILTLKEILGKYCLNNSSRSDLISIIKTQLIKHFAYENGYNAIMWGHSMTKLSEVIISLVVKGKGSQIATFLDSESFDTLNNKPCKYKNLYPMKDLLSVEIESFLQIRNLAQFLINVEETNVKPNCLIARKSLPSLGQQKLVKNMTINEITNKYFQDIQNDYSNIISTVLRTADKLTQPKSSMAKPSQCQICQSKIYTNPSNWLNRITVTSPYPVETTEEKYLFKQWQDSKLGQSHTHYVELLNEIKQGASNSLDVEDGDVKLCYGCLILLNTSIKDKNLVWPKVDTMDITANATNKNKELSQILDQFEINSDGEE
[1]
  Miller units (beta-galactosidase, two-hybrid): 109 MU
